For ten molecules, GI50 and TGI results are on record in PubChem BioAssay (NCI).

Some test systems named below: OVCAR-3 ovarian; PC-3 prostate; DU-145 prostate; RXF 393 renal; RPMI-8226 leukemia; UACC-62 melanoma; A549 NSCLC; IGROV1 ovarian; MDA-MB-231 breast; LOX IMVI melanoma.
Common to all, as to assay: DTP human tumour cell line panel, 48 h

One may read the GI50 as the concentration giving 50% growth inhibition. By TGI is commonly meant the concentration giving total growth inhibition. Low readings indicate greater sensitivity of the cells, high ones lower sensitivity of the cells.

Values joined by “and” are separate entries in the source; they are usually repeats but may differ in a detail not shown here. Identical values can stand only once.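 Grown in 96-well plates, cells were treated for 48 hours with each compound at five concentrations. Insufficient inhibition: endpoint recorded as highest concentration tested. Here, GI50 denotes the concentration required for 50% inhibition of growth. TGI: concentration producing complete growth inhibition.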

For `Clc1cc(Cl)c(Cl)c(-c2nc(-c3cccnc3)cs2)c1`, the GI50 is 16.2 µM in the assay on OVCAR-3 ovarian; 59.4 µM with PC-3 prostate; 2.55 µM with DU-145 prostate; 10.9 µM in the assay on RXF 393 renal; 17.9 µM in the assay on RPMI-8226 leukemia; 24 µM in the assay on UACC-62 melanoma. The GI50 in the assay with A549 NSCLC is 24.8 µM; with IGROV1 ovarian, 32.8 µM; in the assay with MDA-MB-231 breast it was 53 µM; with LOX IMVI melanoma, 16 µM. For the same molecule, the TGI is 81.9 µM in the assay on OVCAR-3 ovarian; > 100 µM in the assay with PC-3 prostate; 96.2 µM in the assay with DU-145 prostate; 35.2 µM in the assay on RXF 393 renal; 80.8 µM in the assay on RPMI-8226 leukemia; 73.3 µM with UACC-62 melanoma. Besides, the TGI in the assay with A549 NSCLC was > 100 µM; in the assay with IGROV1 ovarian, > 100 µM; in the assay on MDA-MB-231 breast, > 100 µM; in the assay with LOX IMVI melanoma it was 37.6 µM.

In the case of `O=C(O)CC(Nc1ccccc1)C(=O)O` (configuration not stated), the TGI in the assay with OVCAR-3 ovarian, with PC-3 prostate, in the assay on DU-145 prostate, in the assay on RXF 393 renal, in the assay on RPMI-8226 leukemia and in the assay on UACC-62 melanoma was > 100 µM throughout. In addition, the TGI in the assay on A549 NSCLC, in the assay on IGROV1 ovarian, in the assay with MDA-MB-231 breast and in the assay with LOX IMVI melanoma was > 100 µM throughout.

Turning to `COc1ccc(/C=C2\CN(Cc3cn(CCCNc4ccnc5cc(Cl)ccc45)nn3)C/C(=C\c3ccc(OC)c(OC)c3)C2=O)cc1OC`, the GI50 with OVCAR-3 ovarian was 0.463 µM; with PC-3 prostate, 0.843 µM; in the assay with DU-145 prostate, 1.1 µM; with RXF 393 renal, 1.56 µM; in the assay with RPMI-8226 leukemia, 1.46 µM; with UACC-62 melanoma, 1.49 µM. The GI50 is 1.71 µM in the assay on A549 NSCLC, 1.05 µM in the assay with IGROV1 ovarian, 1.7 µM with MDA-MB-231 breast and 1.08 µM in the assay on LOX IMVI melanoma. Also, the TGI in the assay on OVCAR-3 ovarian stood at 1.68 µM; in the assay with PC-3 prostate it was 3.22 µM; in the assay on DU-145 prostate, 2.31 µM; in the assay with RXF 393 renal, 3.01 µM; with RPMI-8226 leukemia, 5.65 µM; in the assay with UACC-62 melanoma, 3.16 µM. Also, the TGI stood at 4.11 µM with A549 NSCLC, 2.41 µM with IGROV1 ovarian, 3.48 µM with MDA-MB-231 breast and 2.43 µM in the assay with LOX IMVI melanoma.

For `CNNCc1ccc(C(=O)NC(C)C)cc1`, the TGI was > 472 µM in the assay with OVCAR-3 ovarian; > 500 µM in the assay with PC-3 prostate; > 500 µM in the assay with DU-145 prostate; > 500 µM with RXF 393 renal; > 500 µM in the assay with RPMI-8226 leukemia; 393 µM and > 500 µM in the assay with UACC-62 melanoma. The TGI in the assay with A549 NSCLC, in the assay on IGROV1 ovarian, in the assay with MDA-MB-231 breast and in the assay on LOX IMVI melanoma was > 500 µM each time. In addition, the GI50 with RXF 393 renal, in the assay on UACC-62 melanoma, in the assay with A549 NSCLC and in the assay with IGROV1 ovarian was > 500 µM in each case.

As to `ClCc1ccc(-c2ccc(Cn3cnc4c(Cl)nc(Cl)nc43)cc2)cc1`, the GI50 in the assay on OVCAR-3 ovarian was 1.65 µM; in the assay on PC-3 prostate it was 2.21 µM; in the assay on DU-145 prostate, 1.58 µM; in the assay with RXF 393 renal, 1.67 µM; in the assay with RPMI-8226 leukemia it was 2.33 µM; in the assay on UACC-62 melanoma, 2.49 µM. Besides, the GI50 in the assay on A549 NSCLC was 1.73 µM; in the assay with IGROV1 ovarian, 0.885 µM; in the assay on MDA-MB-231 breast, 2.76 µM; in the assay on LOX IMVI melanoma, 1.64 µM. The TGI came to 3.05 µM in the assay on OVCAR-3 ovarian; 5.28 µM in the assay on PC-3 prostate; 2.94 µM in the assay with DU-145 prostate; 3.38 µM in the assay with RXF 393 renal; 5.77 µM in the assay with RPMI-8226 leukemia; 6.35 µM with UACC-62 melanoma. The TGI stood at 3.59 µM in the assay with A549 NSCLC, 2.28 µM in the assay with IGROV1 ovarian, 7.14 µM in the assay with MDA-MB-231 breast and 3.2 µM in the assay on LOX IMVI melanoma.

As for `Cc1c2c(nn1C(=O)c1nn(-c3ccc(Cl)cc3)cc1O)-c1ccccc1CC2`, the GI50 in the assay on OVCAR-3 ovarian was 0.185 µM; in the assay with PC-3 prostate, 0.0373 µM; in the assay on DU-145 prostate, 0.0497 µM; in the assay with RXF 393 renal, 0.0441 µM; in the assay with RPMI-8226 leukemia, 0.0432 µM; with UACC-62 melanoma, 0.0507 µM. In addition, the GI50 in the assay on A549 NSCLC was 0.0343 µM; in the assay with IGROV1 ovarian, 0.0429 µM; in the assay with MDA-MB-231 breast it was 1.62 µM; with LOX IMVI melanoma, 0.0722 µM. The TGI in the assay on OVCAR-3 ovarian is 1.55 µM; with PC-3 prostate, > 100 µM; in the assay with DU-145 prostate it was > 100 µM; in the assay with RXF 393 renal, > 42.8 µM; in the assay with A549 NSCLC, > 100 µM; in the assay on IGROV1 ovarian, > 100 µM. Further, the TGI in the assay on MDA-MB-231 breast and in the assay with LOX IMVI melanoma was > 100 µM each time.

On to `COc1cc(/C=C/C(=O)c2ccc(Nc3ncnc4ccccc34)cc2)cc(OC)c1`, for which the GI50 with OVCAR-3 ovarian is 4 µM; in the assay with PC-3 prostate, 3.36 µM; in the assay with DU-145 prostate, 6.71 µM; in the assay with RXF 393 renal, 2.11 µM; in the assay with RPMI-8226 leukemia, 0.227 µM; in the assay on UACC-62 melanoma, 7.7 µM. Moreover, the GI50 is 3.2 µM in the assay on A549 NSCLC, 13.5 µM in the assay on IGROV1 ovarian, 13.5 µM with MDA-MB-231 breast and 1.85 µM with LOX IMVI melanoma. Besides, the TGI with OVCAR-3 ovarian is 13.5 µM; with PC-3 prostate, 31.6 µM; with DU-145 prostate, 22.2 µM; in the assay on RXF 393 renal, 9.32 µM; in the assay on RPMI-8226 leukemia it was 0.715 µM; with UACC-62 melanoma, 27.7 µM. Further, the TGI with A549 NSCLC worked out at 14.4 µM; with IGROV1 ovarian it was 60.2 µM; in the assay with MDA-MB-231 breast it was 49.1 µM; with LOX IMVI melanoma it was 4.16 µM.

In the case of `COc1cc(/C=C2\CN(C)C/C(=C\c3cc(OC)c(OC)c(OC)c3)C2=O)cc(OC)c1OC`, the GI50 in the assay with OVCAR-3 ovarian is 0.328 µM; in the assay on PC-3 prostate, 1.32 µM; in the assay with DU-145 prostate, 0.355 µM; in the assay with RXF 393 renal it was 0.199 µM; in the assay on RPMI-8226 leukemia it was 0.266 µM; in the assay on UACC-62 melanoma, 0.186 µM. For the same molecule, the GI50 with A549 NSCLC was 0.37 µM; with IGROV1 ovarian, 0.413 µM; in the assay with MDA-MB-231 breast, 0.336 µM; in the assay on LOX IMVI melanoma it was 0.141 µM. Moreover, the TGI worked out at 0.892 µM in the assay on OVCAR-3 ovarian; 4.52 µM in the assay with PC-3 prostate; 1.22 µM in the assay with DU-145 prostate; 0.389 µM in the assay on RXF 393 renal; 0.841 µM in the assay on RPMI-8226 leukemia; 0.383 µM in the assay on UACC-62 melanoma. The TGI with A549 NSCLC turned out to be 1.59 µM; in the assay on IGROV1 ovarian, 1.73 µM; in the assay on MDA-MB-231 breast it was 1.03 µM; in the assay with LOX IMVI melanoma, 0.37 µM.

`C=C1C(=O)O[C@H]2[C@H]1CC/C(COC(=O)CCCCCCCCC(=O)OC/C1=C/CC[C@@]3(C)O[C@H]3[C@H]3OC(=O)C(=C)[C@@H]3CC1)=C\CC[C@@]1(C)O[C@@H]21`: the GI50 in the assay with OVCAR-3 ovarian is 1.67 µM; with PC-3 prostate, 1.99 µM; in the assay with DU-145 prostate it was 2.03 µM; in the assay with RXF 393 renal, 1.86 µM; in the assay with RPMI-8226 leukemia, 2.92 µM; in the assay with UACC-62 melanoma, 1.99 µM. Further, the GI50 in the assay on A549 NSCLC was 6.63 µM; in the assay with IGROV1 ovarian, 1.97 µM; in the assay on MDA-MB-231 breast, 1.92 µM; in the assay with LOX IMVI melanoma it was 1.62 µM. For the same molecule, the TGI in the assay with OVCAR-3 ovarian was determined as 3.11 µM; in the assay with PC-3 prostate it was 4.35 µM; in the assay with DU-145 prostate, 4.2 µM; with RXF 393 renal, 3.42 µM; with RPMI-8226 leukemia, 8.29 µM; with UACC-62 melanoma, 4.25 µM. Also, the TGI amounted to 22.1 µM in the assay on A549 NSCLC, 4.24 µM with IGROV1 ovarian, 3.79 µM with MDA-MB-231 breast and 3.08 µM in the assay with LOX IMVI melanoma.

Regarding `S=c1nc2[nH]ncc2c(N/N=C/c2ccccc2)[nH]1`, the GI50 is 48.5 µM in the assay on OVCAR-3 ovarian; > 100 µM in the assay with PC-3 prostate; > 100 µM with DU-145 prostate; > 100 µM in the assay with RXF 393 renal; 60.6 µM in the assay on RPMI-8226 leukemia; 72.7 µM with UACC-62 melanoma. The GI50 with A549 NSCLC is 98.3 µM; with IGROV1 ovarian it was 45.4 µM; with MDA-MB-231 breast, 19.8 µM; in the assay on LOX IMVI melanoma, 64 µM. Besides, the TGI with OVCAR-3 ovarian, in the assay on PC-3 prostate, in the assay with DU-145 prostate, with RXF 393 renal, in the assay with RPMI-8226 leukemia and with UACC-62 melanoma was > 100 µM each time. The concentration for total growth inhibition (TGI) in the assay on A549 NSCLC was > 100 µM; with IGROV1 ovarian it was > 100 µM; in the assay on MDA-MB-231 breast it was 71.4 µM; in the assay with LOX IMVI melanoma, > 100 µM.
